From patent US5043450A, “8-alkoxyquinolonecarboxylic acid and salts thereof” (priority 1986, dated 1991)
Like-named read-outs stand apart in the source and are kept apart here.

What was measured:
Type in all cases: cell-based
[1] = test system: E. coli ATCC 10536; test: Antibacterial spectra, MIC; conditions: Escherichia coli, ATCC10536
[2] = test system: Klebsiella pneumoniae KY(GN)6445; test: Antibacterial spectra, MIC
[3] = test system: S. aureus Smith; test: Antibacterial spectra, MIC; conditions: Staphylococcus aureus
[4] = test system: Acinetobacter anitratus IID 876; test: Antibacterial spectra, MIC; conditions: Acinetobacter calcoaceticus, IID876
[5] = test system: Yersinia enterocolitica IID 981; test: Antibacterial spectra, MIC
[6] = test system: Staphylococcus aureus 209 P; test: Antibacterial spectra, MIC
[7] = test system: F. varium KYA 8501; test: Antibacterial spectra, MIC; conditions: Fusobacterium varium, KYA8501; 10^6 cells/ml; Gram -; read-out: MIC
[8] = test system: F. necrophorum S-45; test: Antibacterial spectra, MIC; conditions: Fusobacterium necrophorum, S45
[9] = test system: Clostridium difficile I-E; test: Antibacterial spectra, MIC; conditions: Clostridioides difficile
[10] = test system: Eubacterium lentum GAI 5242; test: Antibacterial spectra, MIC; conditions: Eggerthella lenta, GAI5242
[11] = test system: P. aeruginosa IID 1210; test: Antibacterial spectra, MIC; conditions: Pseudomonas aeruginosa, IID1210
[12] = test system: Propionibacterium acens 11828; test: Antibacterial spectra, MIC; conditions: 10^6 cells/ml, Gram +, read-out: MIC
[13] = test system: Enterobacter cloacae IID 977; test: Antibacterial spectra, MIC
[14] = test system: K. pneumoniae 1-220S; test: Antibacterial spectra, MIC; conditions: Klebsiella pneumoniae, 1220S
[15] = test system: Fusobacterium mortiferum 4249; test: Antibacterial spectra, MIC
[16] = test system: B. thetaiotaomicron (0661); test: Antibacterial spectra, MIC; conditions: Bacteroides thetaiotaomicron
[17] = test system: Citrobacter freundii IID 976; test: Antibacterial spectra, MIC
[18] = test system: P. cepacia GIFU 518; test: Antibacterial spectra, MIC; conditions: Burkholderia cepacia, GIFU518
[19] = test system: P. mirabilis IID 994; test: Antibacterial spectra, MIC; conditions: Proteus mirabilis, IID994
[20] = test system: S. aureus IID 670 (Terajima); test: Antibacterial spectra, MIC; conditions: Staphylococcus aureus, IID670
[21] = test system: B. distasonis 8503; test: Antibacterial spectra, MIC; conditions: Parabacteroides distasonis
[22] = test system: Alcaligenes faecalis 0114002; test: Antibacterial spectra, MIC
[23] = test system: S. epidermidis IID 866; test: Antibacterial spectra, MIC; conditions: Staphylococcus epidermidis, IID866
[24] = test system: Morganella morganii IID 602; test: Antibacterial spectra, MIC
[25] = test system: S. pneumoniae IID 552; test: Antibacterial spectra, MIC; conditions: Streptococcus pneumoniae, IID552
[26] = test system: P. aeruginosa IFO 12689; test: Antibacterial spectra, MIC; conditions: Pseudomonas aeruginosa, IFO12689
[27] = test system: Peptostreptococcus anaerobius KYA 27337; test: Antibacterial spectra, MIC
[28] = test system: Salmonella enteritidis IID 604; test: Antibacterial spectra, MIC; conditions: Salmonella enterica
[29] = test system: Pseudomonas aeruginosa V-1; test: Antibacterial spectra, MIC; conditions: V1
[30] = test system: C. ramosum; test: Antibacterial spectra, MIC; conditions: Thomasclavelia ramosa
[31] = test system: Escherichia coli NIHJ JC-2; test: Antibacterial spectra, MIC; conditions: NIHJJC2
[32] = test system: S. pyogenes IID 692; test: Antibacterial spectra, MIC; conditions: Streptococcus pyogenes, IID692
[33] = test system: Shigella sonnei IID 969; test: Antibacterial spectra, MIC; conditions: IID969, 10^6 cells/ml, Gram -
Experimental: (§1) The antibacterial test was carried out according to the method designated by Japan Society of Chemotherapy.

[34] = test system: Proteus vulgaris IFO 3167; test: Antibacterial spectra, MIC; conditions: IFO3167, 10^6 cells/ml, Gram -
Experimental: as §1

[35] = test system: Streptococcus pyogenes (S-8); test: Antibacterial spectra, MIC; conditions: 10^6 cells/ml, Gram +
Experimental: as §1

[36] = test system: E. coli ML 4707; test: Antibacterial spectra, MIC; conditions: Escherichia coli, ML4707; 10^6 cells/ml; Gram -
Experimental: as §1

[37] = test system: E. faecalis IID 682; test: Antibacterial spectra, MIC; conditions: Enterococcus faecalis, IID682; 10^6 cells/ml; Gram +
Experimental: as §1

[38] = test system: Pst. micros UPI 5464-1; test: Antibacterial spectra, MIC; conditions: Parvimonas micra, UPI54641
[39] = test system: Bacilus subtilis PCI 219; test: Antibacterial spectra, MIC; conditions: Bacillus subtilis, PCI219
[40] = test system: B. fragilis 0558; test: Antibacterial spectra, MIC; conditions: Bacteroides fragilis
[41] = test system: Serratia marcescens IID 618; test: Antibacterial spectra, MIC
[42] = test system: B. fragilis 25285; test: Antibacterial spectra, MIC; conditions: Bacteroides fragilis
[43] = test system: Veillonella parvula KYA 10790; test: Antibacterial spectra, MIC; conditions: KYA10790
[44] = test system: B. vulgatus KYA 29327; test: Antibacterial spectra, MIC; conditions: Phocaeicola vulgatus, KYA29327
[45] = test system: P. maltophilia GIFU 2491; test: Antibacterial spectra, MIC; conditions: Stenotrophomonas maltophilia, GIFU2491
[46] = test system: Bacteroides fragilis GM 7000; test: Antibacterial spectra, MIC; conditions: GM7000
[47] = test system: Peptococcus magnus KY 017; test: Antibacterial spectra, MIC; conditions: Finegoldia magna, KY017
[48] = test system: C. perfringens KYA 13123; test: microbe, parasite or virus in culture; conditions: Clostridium perfringens, KYA13123
[49] = 10^6 cells/ml, Gram -, read-out: MIC
[50] = 10^6 cells/ml, Gram +, read-out: MIC

Measured: MIC

COc1c(N2C[C@@H](N)[C@@H](C)C2)c(F)cc2c(=O)c(C(=O)O)cn(C3CC3)c12 (relative stereo) [Exp. 5, 7-(cis-3-amino-4-methyl-1-pyrrolidinyl)-1-cyclopropyl-6-fluoro-1,4-dihydro-8-methoxy-4-oxo-3-quinolinecarboxylic acid]
0.0125 µg/mL: [1] | [31] | [39]
0.1 µg/mL: [16] | [23] | [25] | [32] | [35] | [37] | [40] | [42] | [45] | [46] | [47]
1.56 µg/mL: [7] | [12]
≤ 0.05 µg/mL: [10]
0.2 µg/mL: [8] | [15] | [22] | [27]; KYA27337 | [38] | [43] | [44]
0.025 µg/mL: [2] | [6] | [33] | [34] | [36]
0.78 µg/mL: [11] | [18] | [26] | [29] | [30]
0.05 µg/mL: [3] | [4] | [5]; IID981 | [13]; IID977 | [14] | [17]; IID976 | [19] | [20] | [24]; IID602 | [28] | [41]; IID618
0.39 µg/mL: [9] | [21]

COc1c(N2CCN(C)CC2)c(F)cc2c(=O)c(C(=O)O)cn(C3CC3)c12 [Exp. 2, 1-cyclopropyl-6-fluoro-1,4-dihydro-8-methoxy-7-(4-methyl-1-piperazinyl)-4-oxo-3-quinolinecarboxylic acid]
0.39 µg/mL: [21] | [22] | [48] | [29] | [38] | [42] | [43] | [44] | [46]
3.13 µg/mL: [30]
0.025 µg/mL: [1] | [33] | [34] | [36] | [39]
0.05 µg/mL: [2]; [49] | [17]; IID976, 10^6 cells/ml, Gram -, read-out: MIC | [19]; [49]
0.78 µg/mL: [8]; [49] | [15]; [49] | [27]; KYA27337, 10^6 cells/ml, Gram +, read-out: MIC
6.25 µg/mL: [7] | [12]
1.56 µg/mL: [9]; [50] | [11]; [49] | [16]; [49] | [18]; [49] | [26]; [49]
0.2 µg/mL: [10]; [50] | [40]; [49] | [45]; [49] | [47]; [50]
0.1 µg/mL: [3]; [50] | [4]; [49] | [5]; IID981, 10^6 cells/ml, Gram -, read-out: MIC | [6]; [50] | [13]; IID977, 10^6 cells/ml, Gram -, read-out: MIC | [14]; [49] | [20]; [50] | [23]; [50] | [24]; IID602, 10^6 cells/ml, Gram -, read-out: MIC | [28]; [49] | [41]; IID618, 10^6 cells/ml, Gram -, read-out: MIC
0.0125 µg/mL: [31]

COc1c(N2CCC(N)C2)c(F)cc2c(=O)c(C(=O)O)cn(C3CC3)c12 (stereo not shown) [Exp. 4, 7-(3-amino-1-pyrrolidinyl)-1-cyclopropyl-6-fluoro-1,4-dihydro-8-methoxy-4-oxo-3-quinolinecarboxylic acid]
0.2 µg/mL: [8] | [15] | [16] | [48] | [27]; KYA27337 | [38] | [43] | [46]
0.1 µg/mL: [10] | [23] | [25] | [32] | [37] | [40] | [42] | [45] | [47]
0.025 µg/mL: [1] | [33] | [34] | [36] | [39]
1.56 µg/mL: [7] | [12]
0.39 µg/mL: [9] | [11] | [18] | [22] | [26] | [29] | [44]
0.05 µg/mL: [2] | [3] | [4] | [5]; IID981 | [6] | [13]; IID977 | [14] | [17]; IID976 | [19] | [20] | [24]; IID602 | [28] | [35] | [41]; IID618
0.78 µg/mL: [21] | [30]
0.0125 µg/mL: [31]
